SMILES | melting point [°C]
CCCCCN1Cc2cccc(Cl)c2S1(=O)=O | 46 to 48
COc1c(C)cnc(CS(=O)c2nc3c(C)c(OC)c(C)cc3[nH]2)c1C (configuration not stated) | 137
O=C(NN1CCCCC1)c1cn(-c2ccc(Br)cc2)c(-c2ccc(Cl)cc2Cl)n1 | 219 to 221
Clc1c(-c2cnco2)[nH]c2ccccc12 | 131 to 134
COc1ccc(CNc2c3c(nc4ccccc24)CCCC3O)cc1 (configuration not stated) | 163 to 165
CCCCc1ncc(/C(C)=C(\Cc2ccccc2)C(=O)O)n1Cc1ccccc1Cl | 206 to 207
NS(=O)(=O)NC[C@H]1COc2ccc(Cl)cc2O1 | 118 to 119
CON=Cc1nc(Nc2ccccc2)nc(C)c1C | 85 to 88
COc1ccc(Cn2cc(OCc3ccccc3)c(=O)cc2C(=O)NCCNCc2ccccc2)cc1 | 112
Fc1cc(F)cc(CN2CCN(c3cc(-c4ccccc4)c(C(F)(F)F)nn3)CC2)c1 | 139
O=C(CN1CC2C(=O)N(c3cc(Cl)cc(Cl)c3)C(=O)C2C1)c1ccc(Br)cc1 (configuration not stated) | 150
CCOC1=CC=CC(C=O)C1(OCc1ccccc1)[N+](=O)[O-] (configuration not stated) | 110 to 111
C=CCn1c(C)nc2c1CC(C(=O)OCC)C1=C2NC2(CC1=O)Cc1ccccc1C2 (configuration not stated) | 164 to 165
CC(O)=C(C#N)C(=O)Oc1cccc(Cl)c1Cl | 142 to 146
C=C(C)CO[C@H]1[C@H](C)OC(=O)[C@@H](NC(=O)c2nccc(OC)c2OCc2ccccc2)COC(=O)[C@@H]1Cc1ccccc1 | 50 to 52
Cc1ccccc1C1=C(c2cccc(OCc3ccccc3)c2)OS(=O)(=O)CC1 | 257 to 259
CC(=O)Nc1ccccc1C(=O)N1CC2CC2(c2ccccc2)C1 (configuration not stated) | 124 to 127
CC(Cn1nnc2ccccc21)(NC(=O)OC1C2CC3CC(C2)CC1C3)C(=O)NCCc1ccccc1 (configuration not stated) | 180 to 185
CC1(C)C2CCC1(CCBr)CC2 | 68 to 71
Cn1c(C(F)(F)F)cc(=O)n(C(c2ccc3c(c2)C(=O)NC3=O)c2nsc3ccccc23)c1=O (configuration not stated) | 204 to 208
CC(C)c1cnn2c(NCc3ccccc3)nc(Cl)cc12 | 74 to 75
O=C(O)CCCCCCCn1cc(-c2ccccc2)c(-c2ccccc2)n1 | 108 to 110
CCOC(=O)c1ccc(-c2ccc(OCCCNC)c(-c3ccc4c(c3)C(C)(C)CCC4(C)C)c2)cc1 | 141
CC(C)c1cccc(C(C)C)c1NC(=O)CN1CCN(CCSc2nc3ccccc3s2)CC1 | 170 to 171
Cc1cc(C)c(Nc2nc(Nc3ccc(C#N)cc3)ncc2-c2ccccc2)c(C)c1 | 209 to 214
CCCc1c(OCCCOc2cc(NC(=O)C(=O)O)c(C)cc2Cl)ccc(C(C)=O)c1O | 188 to 189
Nc1cnc2cccnc2c1O | 315 to 320
NC(=O)c1n[nH]c(-c2ccc(Cl)cc2)c1-c1ccc(S(N)(=O)=O)cc1 | 108 to 110
CCNC(=O)Nc1ccc(-c2sc3c(c2CN(C)CCOC)c(=O)n(-c2ccc(N)cc2)c(=O)n3Cc2c(F)cccc2F)cc1 | 205 to 207
COc1ccc(C(=O)Nc2ccc(COc3ccc4c(c3)CCC(CN(C)C)C4)cc2)cc1 (configuration not stated) | 155 to 159

Results, then the compound that gave them:

melting point [°C] | SMILES
215 | O=C(O)COc1ccc(C(=NO)c2cccs2)c2ccccc12
158 to 162 | CCS(=O)c1cc(C(=O)NCC2CCCN2CC2CC2)c(OC)cc1N (configuration not stated)
87.5 | FC(F)(F)Sc1ncn(-c2c(Cl)cc(C(F)(F)F)cc2Cl)c1Br
119 to 120 | CC(=O)CN1CCc2ccc(C(=O)CCC(=O)N3CCC(c4ccc(Cl)cc4)CC3)cc2CC1
223 to 225 | CCC(=O)NS(=O)(=O)c1ccc(C(=O)C=Cc2cc(-c3cc4ccccc4[nH]3)c(OC)cc2OC)cc1
178 to 180 | CC(C)COc1ccc(C(=O)N/C(=C\c2ccc(C(C)C)cc2)C(=O)NCCO)cc1
217 to 219 | CCOC(=O)c1cnc(Nc2ccccc2OC)[nH]c1=O
134 to 135 | COc1ccc(CNc2ccccc2C(=O)Nc2cccc(C(F)(F)F)c2C)cn1
145 to 147 | CC(C)(C)[Si](C)(C)Oc1ccc2c(c1)CCc1c-2c(=O)oc2cc(O[Si](C)(C)C(C)(C)C)ccc12
128 to 130 | CS(=O)(=O)c1ccc(-c2cc(C(CCCO[N+](=O)[O-])=NO)nn2-c2ccccc2)cc1
90 to 94 | COc1cc(I)c(F)cc1Cl
215 to 217 | CC1(C)OC(=S)Nc2ccc(-c3cccc(CC#N)n3)cc21
> 300 | Nc1nc2ccccc2c2c1ncn2Cc1ccncc1
126 to 128 | CC(C)C(c1cncnc1C(F)(F)F)N1CCN(c2ccccc2)C1=O (configuration not stated)
133 to 136 | C[C@H]1C(=O)Nc2ccc(Cl)cc2N1C(=O)OCCBr
199 to 202 | CCc1nc2c(N)nc3ccccc3c2n1CCCC#Cc1ccccc1
126 to 129 | Cc1cc(OCc2ccccc2)ccc1C(=O)O
193 to 194 | CN(c1cccc2cc(C3=NCC(CC(N)=O)S3)[nH]c12)S(=O)(=O)c1cccs1 (configuration not stated)
100 to 101 | CC(C)(C)c1cc(CCc2nnco2)cc(C(C)(C)C)c1O

melting point [°C] | SMILES
> 220 | O=C(O)c1ccccc1Nc1ccc(-c2ccc(Cl)c(Cl)c2)cc1
85.5 | COc1cc(O)c(C(=O)C=Cc2ccccc2)c(OC)c1
111 to 113 | N#CCCNN=Cc1ccc(C=NNCCC#N)cc1
229 to 230 | Cc1oc(-c2ccccc2)nc1COc1cccc(C=CC=C2OC(=O)NC2=O)c1
169 to 171 | O=C(O)c1cccc(C(=O)NCc2ccc(F)c(-c3cccc(CO)c3)c2)c1
125 to 127 | O=C(O)C(Cc1ccccc1)Oc1ccc2cc(-c3cnc(-c4cn(Cc5ccccc5)c5ccccc45)o3)ccc2c1 (configuration not stated)
80 to 81 | CCCCOC(=O)COc1cc(F)ccc1C(=O)NCc1cccc([N+](=O)[O-])c1
173 | O=C(NC(=O)c1ccccc1F)Nc1ccc(F)c(C(F)(F)F)c1Cl
236 to 238 | O=C1CC(c2cccc(-c3csc(C(=O)NCCO)n3)c2)=Nc2ccc(-n3cccc3)cc2N1
175 to 177 | BrCc1ccc2c(c1)C1(c3ccccc3-2)c2ccccc2-c2ccc(CBr)cc21
155 | O=c1c(CCCCCc2cccnc2)cc2cccnc2n1-c1cccc([N+](=O)[O-])c1
346 to 348 | Nc1cc(I)c(-c2cc([N+](=O)[O-])c(N)cc2I)cc1[N+](=O)[O-]
172 to 173 | Cc1cc(CN2CCC(N(C)S(=O)(=O)c3ccc(Nc4nccc(Nc5ccc(F)c(C)c5)n4)cc3)CC2)no1
165 to 167 | CC(C)(C)c1cc(CCc2ccccc2NC(=O)NCC(C)(C)c2ccc(Cl)c(Cl)c2)cc(C(C)(C)C)c1O
137 to 139 | COC(=O)C(CO)NS(=O)(=O)c1ccc(Oc2ccncc2)cc1 (configuration not stated)
147 to 148 | CC(C)(C)c1ccc(CCCCC(O)C2CCCCC2)cc1NC(=O)CC1c2ccccc2Oc2ccccc21 (configuration not stated)
> 250 | Clc1nc(Cl)nc(NNc2nc(Cl)nc(Cl)n2)n1
50 to 52 | CCOC(=O)CC(=O)NCc1ccccc1
